Source: patent US12128035B2, “Activating pyruvate kinase R” (Novo Nordisk Health Care AG, priority 2021, dated 2024)
“And” between values parts separate entries of the source, which are not always exact repeats. Equal entries are not always repeated. Where two headings read alike, the source gives them in different places.

How the values were obtained:
PKR(R510Q) = PKR(R510Q) (Homo sapiens, UniProt P30613, R510Q); test: Luminescence Assay (Kinase Glo Plus) of PKR activation; assay type: biochemical; details: read-out: AC50 (PKRR510Q)
Description: (§1) PKR Activating Compounds can be identified with the biochemical Luminescence Assay of Example 2. The PKR activating activity of a series of chemical compounds was evaluated using the Luminescence Assay below, including compounds designated Compound 1, and Compound 2, or mixtures thereof.
(§2) For each tested compound, the ability to activate PKR was determined using the following Luminescence Assay. The effect of phosphorylation of adenosine-5′-diphosphate (ADP) by PKR is determined by the Kinase Glo Plus Assay (Promega) in the presence or absence of FBP (D-fructose-1,6-diphosphate; BOC Sciences, CAS: 81028-91-3) as follows. Unless otherwise indicated, all reagents are purchased from Sigma-Aldrich. All reagents are prepared in buffer containing 50 mM Tris-HCl, 100 mM KCl, 5 mM MgCl2, and 0.01% Triton X100, 0.03% BSA, and 1 mM DTT. Enzyme and PEP (phosphoenolpyruvate) are added at 2× to all wells of an assay-ready plate containing serial dilutions of test compounds or DMSO vehicle. Final enzyme concentrations for PKR (wt), PKR(R510Q), and PKR (G332S) are 0.8 nM, 0.8 nM, and 10 nM respectively. Final PEP concentration is 100 μM. The Enzyme/PEP mixture is incubated with compounds for 30 minutes at RT before the assay is initiated with the addition of 2×ADP and KinaseGloPlus. Final concentration of ADP is 100 μM. […] For assays containing FBP, that reagent is added at 30 μM upon reaction initiation. Reactions are allowed to progress for 45 minutes at RT until luminescence is recorded by the BMG PHERAstar FS Multilabel Reader. The compound is tested in triplicate at concentrations ranging from 42.5 μM to 2.2 nM in 0.83% DMSO. AC50 measurements were obtained by the standard four parameter fit algorithm of ActivityBase XE Runner (max, min, slope and AC50). The AC50 value for a compound is the concentration (μM) at which the activity along the four parameter logistic curve fit is halfway between minimum and maximum activity.
(§3) As set forth in Table 2 below, AC50 values are defined as follows: ≤0.1 μM (+++); >0.1 μM and ≤1.0 μM (++); >1.0 μM and ≤40 μM (+); >40 μM (0).

PKR (G332S) = PKR (G332S) (Homo sapiens, UniProt P30613, G332S); test: as above; assay type: biochemical; details: read-out: AC50 (PKRG332S)
Description: as §1, §2, §3

PKR (wt) = PKR (wt) (Homo sapiens, UniProt P30613); test: as above; assay type: biochemical
Description: as §1, §2, §3

aromatase = target: T1, aromatase (Homo sapiens, UniProt P11511); details: Yang et al. 2018; Grace et al. 2019; cited from earlier work
T1 construct: endogenous in cells; host or cells: H295R adreno-cortical carcinoma cells; healthy human subjects in vivo
T1 sequence (P11511 1-503): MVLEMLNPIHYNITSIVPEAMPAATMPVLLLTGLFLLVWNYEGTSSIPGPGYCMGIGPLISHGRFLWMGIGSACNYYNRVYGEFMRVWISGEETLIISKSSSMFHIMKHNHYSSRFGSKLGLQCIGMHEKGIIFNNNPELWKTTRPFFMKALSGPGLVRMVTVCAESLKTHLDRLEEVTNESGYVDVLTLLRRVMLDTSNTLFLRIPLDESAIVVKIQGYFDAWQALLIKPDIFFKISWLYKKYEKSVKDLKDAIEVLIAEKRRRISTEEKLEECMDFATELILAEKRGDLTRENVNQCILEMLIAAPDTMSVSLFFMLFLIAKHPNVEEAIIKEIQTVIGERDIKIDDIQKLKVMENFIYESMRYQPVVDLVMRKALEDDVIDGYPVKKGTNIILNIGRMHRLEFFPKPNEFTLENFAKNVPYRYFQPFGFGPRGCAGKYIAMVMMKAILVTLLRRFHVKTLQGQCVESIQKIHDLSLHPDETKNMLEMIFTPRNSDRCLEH

[1] = Phase 1: hematologic and hemolytic laboratory parameters in SCD patients; assay type: in vivo, human; details: for Hemoglobin / Indirect Bilirubin / Lactate Dehydrogenase, U/L / Reticulocytes, %: SCD 300 mg Compound 1/Placebo (blinded) once daily, individual Pt 1-3
Excerpt: Laboratory changes relative to pretreatment for each pt in the MD cohort as of Jul. In 2 of 3 SCD MD-1 pts treated with Compound 1/placebo (currently blinded), Hb increased by >1 g/dL, % reticulocytes decreased, and markers of hemolysis were improved after 14 days of treatment (compared to pre-treatment levels). Hematologic parameters returned to pre-treatment levels 4 to 7 days post-treatment (data not shown) without clinical AEs.
A median 1.2 g/dL Hb increase (range 0, 2.3) and a median 60% reticulocyte decrease (range −39%, −81%) over baseline were observed. The onset of the increase in Hb was rapid and continued to increase in most patients through the end of treatment, indicating the potential for additional improvement with extended dosing. […] A median 36% LDH decrease (range +18%, −57%) and a median 35% bilirubin decrease (range −7%, −63%) over baseline were observed, which is consistent with the hypothesis that Compound 1 improves RBC survival and reduces RBC turnover.

[2] = intravenous (IV) bolus dose; cited from earlier work
[3] = cited from earlier work
[4] = whole blood, relative to fasted state

Chain of PKR (G332S) (P30613 whole entry G332S): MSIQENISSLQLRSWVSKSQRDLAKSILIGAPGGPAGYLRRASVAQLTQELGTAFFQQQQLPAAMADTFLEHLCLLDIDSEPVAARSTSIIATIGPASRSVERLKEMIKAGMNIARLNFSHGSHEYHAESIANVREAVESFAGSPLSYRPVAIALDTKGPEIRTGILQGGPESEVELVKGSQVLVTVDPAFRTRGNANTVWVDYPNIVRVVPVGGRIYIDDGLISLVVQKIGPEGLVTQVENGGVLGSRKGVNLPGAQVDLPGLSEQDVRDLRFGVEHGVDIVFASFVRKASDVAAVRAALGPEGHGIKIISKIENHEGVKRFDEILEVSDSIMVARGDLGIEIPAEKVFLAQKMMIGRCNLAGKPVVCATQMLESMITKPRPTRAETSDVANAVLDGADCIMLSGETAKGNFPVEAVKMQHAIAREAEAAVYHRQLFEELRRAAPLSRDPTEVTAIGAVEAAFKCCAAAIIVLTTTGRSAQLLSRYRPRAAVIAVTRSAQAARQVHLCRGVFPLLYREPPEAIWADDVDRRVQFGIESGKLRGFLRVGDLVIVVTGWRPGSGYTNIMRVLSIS
Chain of PKR(R510Q) (P30613 whole entry R510Q): as the sequence (P30613 whole entry G332S) above, with S332G, R510Q counted along it
Chain of PKR (wt) (P30613 whole entry): as the sequence (P30613 whole entry G332S) above, with S332G counted along it

O=C([C@@H](CO)c1ccccc1)N1CC2=C(C1)CN(S(=O)(=O)c1cnc3c(c1)OCCO3)C2 (single isomer, unassigned) [Compound 2]
AC50 (PKR(R510Q)): 1 to 40 µM
AC50 (PKR (G332S)): 1 to 40 µM
AC50 (PKR (wt)): 1 to 40 µM

O=C(c1ccc(NS(=O)(=O)c2cccc3cccnc23)cc1)N1CCN(CC2CC2)CC1 [AG-348]
aromatase inhibition (aromatase): Aromatase inhibition has been observed

O=C([C@H](CO)c1ccccc1)N1CC2=C(C1)CN(S(=O)(=O)c1cnc3c(c1)OCCO3)C2 [Compound 1/Placebo]
Hemoglobin ([1]; Day 7 (on Tx)): 7.9 g/dL and 10.4 g/dL and 8.8 g/dL
Indirect Bilirubin ([1]; Day 7 (on Tx)): 2.5 mg/dL and 0.9 mg/dL and 0.8 mg/dL
Lactate Dehydrogenase, U/L ([1]; Day 7 (on Tx)): 148 U/L and 257 U/L and 371 U/L
Reticulocytes, % ([1]; Day 7 (on Tx)): 12.8% and 6.8% and 5.8%
Hemoglobin ([1]; Day 14/15 (EOT)): 7.5 g/dL and 11.1 g/dL and 9.2 g/dL
Indirect Bilirubin ([1]; Day 14/15 (EOT)): 3.0 mg/dL and 0.8 mg/dL and 1.0 mg/dL
Lactate Dehydrogenase, U/L ([1]; Day 14/15 (EOT)): 192 U/L and 226 U/L and 279 U/L
Reticulocytes, % ([1]; Day 14/15 (EOT)): 11.4% and 0.8% and 4.2%
patients with Hb increased by >1 g/dL ([1]; SCD MD-1, Compound 1/placebo (currently blinded), 14 days): 2 of 3

NC(=O)CC[C@H](N)C(=O)O [L-glutamine, (S)-2-aminoglutaramic acid]
volume of distribution [2]: approximately 200 mL/kg

CC(C)n1nccc1-c1ncccc1COc1cccc(O)c1C=O [voxelotor, 2-hydroxy-6-((2-(1-isopropyl-1H-pyrazol-5-yl)pyridin-3-yl)methoxy)benzaldehyde]
increase in AUC with high-fat, high-calorie meal ([3]; plasma): 42%
increase in Cmax with high-fat, high-calorie meal ([3]; plasma): 95%
steady state AUC higher in HbSC vs HbSS genotype patients ([3]; plasma): 23%
steady state Cmax higher in HbSC vs HbSS genotype patients ([3]; plasma): 15%
increase in AUC with high-fat, high-calorie meal [3, 4]: 42%
increase in Cmax with high-fat, high-calorie meal [3, 4]: 45%
steady state AUC higher in HbSC vs HbSS genotype patients ([3]; whole blood): 50%
steady state Cmax higher in HbSC vs HbSS genotype patients ([3]; whole blood): 45%
